What is called MIC is the lowest concentration that inhibits growth of the organism.

Converted amounts (≈) assume the structure as drawn.

Assay [1] has as its system Enterobacter cloacae. Briefly: Antibacterial activity against GIM-1 producing Enterobacter cloacae T2218 clinical isolates assessed as inhibition of bacterial growth by microdilution method. It is filed as functional.
In assay [2] the test system is Escherichia coli. Briefly: Antibacterial activity against NDM-7 producing Escherichia coli T2239 clinical isolates assessed as inhibition of bacterial growth by microdilution method. The assay is classed as functional.
For assay [3], the system named is Klebsiella pneumoniae. The assay can be described thus: Antibacterial activity against NDM-1 producing Klebsiella pneumoniae T2301 clinical isolates assessed as inhibition of bacterial growth by microdilution method. The assay is classed as functional. For orientation: Dilution methods test growth across graded concentrations, often in twofold steps.
Assay [4] concerns Enterobacter cloacae. The assay can be described thus: Antibacterial activity against NDM-1 producing Enterobacter cloacae T2311 clinical isolates assessed as inhibition of bacterial growth by microdilution method. It is filed as functional.
Assay [5] deals with Serratia marcescens. The assay can be described thus: Antibacterial activity against NDM-1 producing Serratia marcescens T2352 clinical isolates assessed as inhibition of bacterial growth by microdilution method. The assay is classed as functional.
Assay [6] deals with Escherichia coli. Briefly: Antibacterial activity against NDM-5 producing Escherichia coli T2351 clinical isolates assessed as inhibition of bacterial growth by microdilution method.
The test system of assay [7] is Pseudomonas aeruginosa. Briefly: Antibacterial activity against VIM-1 producing Pseudomonas aeruginosa T2357 clinical isolates assessed as inhibition of bacterial growth by microdilution method. The assay is classed as functional.
The test system of assay [8] is Enterobacter cloacae. Briefly: Antibacterial activity against VIM-1 producing Enterobacter cloacae T2353 clinical isolates assessed as inhibition of bacterial growth by microdilution method. The assay is classed as functional.
Assay [9] relates to Pseudomonas aeruginosa. The assay can be described thus: Antibacterial activity against IMP-1 producing Pseudomonas aeruginosa T2325 clinical isolates assessed as inhibition of bacterial growth by microdilution method.
Assay [10] deals with Acinetobacter baumannii. The assay can be described thus: Antibacterial activity against OXA-23 producing Acinetobacter baumannii T2434 clinical isolates assessed as inhibition of bacterial growth by microdilution method. The assay is classed as functional.
Assay [11] deals with Escherichia coli. The assay can be described thus: Antibacterial activity against KPC-2 producing Escherichia coli T2435 clinical isolates assessed as inhibition of bacterial growth by microdilution method. It is filed as functional.
The test system of assay [12] is Klebsiella pneumoniae. Briefly: Antibacterial activity against imipenem-resistant NDM-1-producing Klebsiella pneumoniae T2301 infected in Galleria mellonella larvae assessed as survival rate at 0.12 ug injected via proleg measured after 3 days by Kaplan-Meier method. The assay is classed as functional. To be noted: dose 0.12 µg; time 3 day.

For the compound `C[C@@H](O)[C@H]1C(=O)N2C(C(=O)O)=C(SCCNC=N)C[C@H]12` [IMIPENEM ANHYDROUS], the MIC in assay [1] stood at 2 µg/mL (≈ 6.68 µM); in assay [2], 32 µg/mL (≈ 107 µM); in assay [3], 16 µg/mL (≈ 53.4 µM); in assay [4] it was 8 µg/mL (≈ 26.7 µM); in assay [5] it was 256 µg/mL (≈ 855 µM); in assay [6], 8 µg/mL (≈ 26.7 µM). In addition, the MIC in [7] came out at 256 µg/mL (≈ 855 µM); in [8] it was 4 µg/mL (≈ 13.4 µM); in assay [9], 16 µg/mL (≈ 53.4 µM); in assay [10], 32 µg/mL (≈ 107 µM); in assay [11] it was 4 µg/mL (≈ 13.4 µM). Besides, the Activity result in [12] is listed as “<=25%”.

These data come from ChEMBL document CHEMBL5046281, “N-Aryl Mercaptopropionamides as Broad-Spectrum Inhibitors of Metallo-β-Lactamases” (J Med Chem, 2022).
